These results are taken from paper PMC10444810, “Induction of open-form bile canaliculus formation by hepatocytes for evaluation of biliary drug excretion” (Communications Biology, 2023).

“And” between values parts separate entries of the source, which are not always exact repeats. Identical values can stand only once.

This data set has as its system icHep (PXB-cells on claudin-1, -2, -3, -9 coated Transwell permeable support). The data set can be described thus: icHep permeation assay (sinusoidal to bile side) to estimate drug biliary excretion clearance. The note with it: for In vitro CLbile, app: single replicates; for Predicted in vivo CLbile, int, Mean: mean of 3; for In vitro CLbile, int / Predicted in vivo CLbile, int: single replicate; for Biliary excretion clearance, in vivo, predicted, CLbile, int: scaled up from in vitro CLbile,int, mean ± S.D., n = 3.

[1] abbreviates: Control, block with icHep (HUM181001B).
The mark [2] stands for this setting: Control, block with icHep (JFC).

`CC[C@H]1OC(=O)[C@H](C)[C@@H](O[C@H]2C[C@@](C)(OC)[C@@H](O)[C@H](C)O2)[C@H](C)[C@@H](O[C@@H]2O[C@H](C)C[C@H](N(C)C)[C@H]2O)[C@](C)(O)C[C@@H](C)C(=O)[C@H](C)[C@@H](O)[C@]1(C)O` [Erythromycin, erythromycin]: under setting [1], the “In vitro CLbile, app, Mean” value is recorded as 0.624 ul/min/106 cells; the “In vitro CLbile, app” value was 0.611 ul/min/106 cells and 0.632 ul/min/106 cells and 0.630 ul/min/106 cells. Under setting [2], the “In vitro CLbile, app” value was 1.41 ul/min/106 cells and 1.36 ul/min/106 cells and 1.35 ul/min/106 cells. For the same molecule, under “icHep (HUM181001B)”, the “Predicted in vivo CLbile, int, Mean” value is 171 mL/min; the “In vitro CLbile, int” value is 0.865 ul/min/106 cells and 0.795 ul/min/106 cells and 0.720 ul/min/106 cells; the “Predicted in vivo CLbile, int” value was 187 mL/min and 172 mL/min and 155 mL/min; the “Biliary excretion clearance, in vivo, predicted, CLbile, int” value is 171 ± 15.6 mL/min. Also, the “In vitro CLbile, app” value (icHep (HUM181001B)) is 1.48 ul/min/106 cells and 1.43 ul/min/106 cells and 1.35 ul/min/106 cells. Under “icHep (JFC)”, the “Predicted in vivo CLbile, int, Mean” value is 158 mL/min; the “In vitro CLbile, int” value was 0.650 ul/min/106 cells and 0.762 ul/min/106 cells and 0.784 ul/min/106 cells; the “Predicted in vivo CLbile, int” value is 140 mL/min and 165 mL/min and 169 mL/min; the “Biliary excretion clearance, in vivo, predicted, CLbile, int” value is 158 ± 15.6 mL/min. Moreover, the “In vitro CLbile, app” value (icHep (JFC)) was 2.06 ul/min/106 cells and 2.13 ul/min/106 cells.

For the molecule `CCOc1ccc2ccccc2c1C(=O)N[C@@H]1C(=O)N2[C@@H]1SC(C)(C)[C@@H]2C(=O)O` [Nafcillin, nafcillin], under setting [1], the “In vitro CLbile, app, Mean” value is reported as 0.838 ul/min/106 cells; the “In vitro CLbile, app” value is 0.848 ul/min/106 cells and 0.836 ul/min/106 cells and 0.830 ul/min/106 cells. For the same molecule, under setting [2], the “In vitro CLbile, app, Mean” value was 1.10 ul/min/106 cells; the “In vitro CLbile, app” value was 0.724 ul/min/106 cells and 1.28 ul/min/106 cells and 1.30 ul/min/106 cells. Under “icHep (HUM181001B)”, the “Predicted in vivo CLbile, int, Mean” value is 232 mL/min; the “In vitro CLbile, int” value is 0.964 ul/min/106 cells and 1.03 ul/min/106 cells and 1.23 ul/min/106 cells; the “Predicted in vivo CLbile, int” value is 208 mL/min and 222 mL/min and 266 mL/min; the “In vitro CLbile, app, Mean” value is reported as 1.91 ul/min/106 cells. Under “icHep (HUM181001B)”, the “Biliary excretion clearance, in vivo, predicted, CLbile, int” value is 232 ± 30.1 mL/min; the “In vitro CLbile, app” value is 1.81 ul/min/106 cells and 1.86 ul/min/106 cells and 2.06 ul/min/106 cells. Moreover, for the setting “icHep (JFC)”, the “Predicted in vivo CLbile, int, Mean” value was 479 mL/min; the “In vitro CLbile, int” value was 3.37 ul/min/106 cells and 1.82 ul/min/106 cells and 1.47 ul/min/106 cells; the “Predicted in vivo CLbile, int” value is 727 mL/min and 394 mL/min and 316 mL/min; the “In vitro CLbile, app, Mean” value is recorded as 3.32 ul/min/106 cells. Under “icHep (JFC)”, the “Biliary excretion clearance, in vivo, predicted, CLbile, int” value was 479 ± 218 mL/min; the “In vitro CLbile, app” value is 4.09 ul/min/106 cells and 3.10 ul/min/106 cells and 2.77 ul/min/106 cells.

As to `C[C@H]1O[C@@H](O[C@H]2[C@@H](O)C[C@H](O[C@H]3[C@@H](O)C[C@H](O[C@H]4CC[C@@]5(C)[C@H](CC[C@@H]6[C@@H]5C[C@@H](O)[C@]5(C)[C@@H](C7=CC(=O)OC7)CC[C@]65O)C4)O[C@@H]3C)O[C@@H]2C)C[C@H](O)[C@@H]1O` [Digoxin, digoxin], the “Predicted in vivo CLbile, int” value by setting is: (icHep (HUM181001B)) 242 mL/min and 175 mL/min; (icHep (JFC)) 71.3 mL/min and 159 mL/min and 72.7 mL/min.

Consider `CN(Cc1cnc2nc(N)nc(N)c2n1)c1ccc(C(=O)N[C@@H](CCC(=O)O)C(=O)O)cc1` [Methotrexate, methotrexate], for which, under setting [1], the “In vitro CLbile, app, Mean” value is 1.51 ul/min/106 cells; the “In vitro CLbile, app” value is 1.65 ul/min/106 cells and 1.43 ul/min/106 cells and 1.44 ul/min/106 cells. Besides, under setting [2], the “In vitro CLbile, app, Mean” value was 1.37 ul/min/106 cells; the “In vitro CLbile, app” value was 1.41 ul/min/106 cells and 1.36 ul/min/106 cells and 1.35 ul/min/106 cells. In addition, under “icHep (HUM181001B)”, the “Predicted in vivo CLbile, int, Mean” value was 157 mL/min; the “In vitro CLbile, int” value was 0.425 ul/min/106 cells and 0.942 ul/min/106 cells and 0.808 ul/min/106 cells; the “Predicted in vivo CLbile, int” value is 91.9 mL/min and 203 mL/min and 175 mL/min; the “In vitro CLbile, app, Mean” value is given as 2.23 ul/min/106 cells. For the setting “icHep (HUM181001B)”, the “Biliary excretion clearance, in vivo, predicted, CLbile, int” value is 157 ± 57.9 mL/min; the “In vitro CLbile, app” value is 2.08 ul/min/106 cells and 2.37 ul/min/106 cells and 2.25 ul/min/106 cells. For the same molecule, under “icHep (JFC)”, the “Predicted in vivo CLbile, int, Mean” value was 241 mL/min; the “In vitro CLbile, int” value is 1.21 ul/min/106 cells and 1.27 ul/min/106 cells and 0.865 ul/min/106 cells; the “Predicted in vivo CLbile, int” value is 261 mL/min and 274 mL/min and 187 mL/min; the “In vitro CLbile, app, Mean” value is listed as 2.11 ul/min/106 cells. For the same molecule, where the note is “icHep (JFC)”, the “Biliary excretion clearance, in vivo, predicted, CLbile, int” value is 241 ± 46.9 mL/min; the “In vitro CLbile, app” value was 2.06 ul/min/106 cells and 2.12 ul/min/106 cells and 2.13 ul/min/106 cells.

As for `CC[C@]1(O)C[C@H]2CN(CCc3c([nH]c4ccccc34)[C@@](C(=O)OC)(c3cc4c(cc3OC)N(C=O)[C@H]3[C@@](O)(C(=O)OC)[C@H](OC(C)=O)[C@]5(CC)C=CCN6CC[C@]43[C@@H]65)C2)C1` [Vincristine, vincristine], under setting [1], the “In vitro CLbile, app, Mean” value is given as 0.159 ul/min/106 cells; the “In vitro CLbile, app” value was 0.124 ul/min/106 cells and 0.154 ul/min/106 cells and 0.199 ul/min/106 cells. For the same molecule, under setting [2], the “In vitro CLbile, app, Mean” value is on record as 0.205 ul/min/106 cells; the “In vitro CLbile, app” value was 0.186 ul/min/106 cells and 0.220 ul/min/106 cells and 0.208 ul/min/106 cells. Besides, where the note is “icHep (HUM181001B)”, the “Predicted in vivo CLbile, int, Mean” value is 27.6 mL/min; the “In vitro CLbile, int” value was 0.176 ul/min/106 cells and 0.118 ul/min/106 cells and 0.0898 ul/min/106 cells; the “Predicted in vivo CLbile, int” value is 38.0 mL/min and 25.6 mL/min and 19.4 mL/min; the “In vitro CLbile, app, Mean” value is listed as 0.287 ul/min/106 cells. Under “icHep (HUM181001B)”, the “Biliary excretion clearance, in vivo, predicted, CLbile, int” value was 27.6 ± 9.46 mL/min; the “In vitro CLbile, app” value was 0.300 ul/min/106 cells and 0.273 ul/min/106 cells and 0.289 ul/min/106 cells. Also, where the note is “icHep (JFC)”, the “Predicted in vivo CLbile, int, Mean” value is 37.3 mL/min; the “In vitro CLbile, int” value is 0.159 ul/min/106 cells and 0.230 ul/min/106 cells and 0.129 ul/min/106 cells; the “Predicted in vivo CLbile, int” value is 34.3 mL/min and 49.7 mL/min and 27.8 mL/min; the “In vitro CLbile, app, Mean” value was 0.377 ul/min/106 cells. Where the note is “icHep (JFC)”, the “Biliary excretion clearance, in vivo, predicted, CLbile, int” value was 37.3 ± 11.2 mL/min; the “In vitro CLbile, app” value is 0.345 ul/min/106 cells and 0.450 ul/min/106 cells and 0.337 ul/min/106 cells.

Consider `CN/C(=N/CCSCc1nc[nH]c1C)NC#N` [Cimetidine, cimetidine], for which, under setting [1], the “In vitro CLbile, app, Mean” value is 0.585 ul/min/106 cells; the “In vitro CLbile, app” value is 0.596 ul/min/106 cells and 0.590 ul/min/106 cells and 0.570 ul/min/106 cells. Besides, under setting [2], the “In vitro CLbile, app, Mean” value is given as 1.14 ul/min/106 cells; the “In vitro CLbile, app” value is 1.06 ul/min/106 cells and 1.22 ul/min/106 cells and 1.15 ul/min/106 cells. Besides, where the note is “icHep (HUM181001B)”, the “Predicted in vivo CLbile, int, Mean” value was 97.8 mL/min; the “In vitro CLbile, int” value is 0.316 ul/min/106 cells and 0.409 ul/min/106 cells and 0.633 ul/min/106 cells; the “Predicted in vivo CLbile, int” value is 68.3 mL/min and 88.4 mL/min and 137 mL/min; the “In vitro CLbile, app, Mean” value is listed as 1.04 ul/min/106 cells. For the setting “icHep (HUM181001B)”, the “Biliary excretion clearance, in vivo, predicted, CLbile, int” value is 97.8 ± 35.1 mL/min; the “In vitro CLbile, app” value was 0.913 ul/min/106 cells and 1.00 ul/min/106 cells and 1.20 ul/min/106 cells. For the setting “icHep (JFC)”, the “Predicted in vivo CLbile, int, Mean” value is 188 mL/min; the “In vitro CLbile, int” value was 0.810 ul/min/106 cells and 1.04 ul/min/106 cells and 0.756 ul/min/106 cells; the “Predicted in vivo CLbile, int” value was 175 mL/min and 225 mL/min and 163 mL/min; the “In vitro CLbile, app, Mean” value is 2.01 ul/min/106 cells. For the same molecule, for the setting “icHep (JFC)”, the “Biliary excretion clearance, in vivo, predicted, CLbile, int” value is 188 ± 32.8 mL/min; the “In vitro CLbile, app” value was 1.87 ul/min/106 cells and 2.26 ul/min/106 cells and 1.90 ul/min/106 cells.
